| Compound | melting point [°C] |
| --- | --- |
| Cc1nc(N2CCN(CCC3CC3)C2=O)sc1C(=O)NCc1ccc(F)cc1 [Example 9.18, 2-(3-(2-cyclopropylethyl)-2-oxoimidazolidin-1-yl)-N-(4-fluorobenzyl)-4-methylthiazole-5-carboxamide] | 122 to 123 |
| Cc1nc(N2CCN(Cc3ccc(F)cc3)C2=O)sc1C(=O)NCc1ccc(F)cc1 [Example 9.20, N-(4-fluorobenzyl)-2-(3-(4-fluorobenzyl)-2-oxoimidazolidin-1-yl)-4-methylthiazole-5-carboxamide] | 177 to 178 |
| Cc1nc(N2CCN(Cc3ccc(F)cc3)C2=O)sc1C(=O)NCc1ccccc1 [Example 9.21, N-benzyl-2-(3-(4-fluorobenzyl)-2-oxoimidazolidin-1-yl)-4-methylthiazole-5-carboxamide] | 192 to 193 |
| Cc1nc(N2C[C@@H](Cc3ccccc3)NC2=O)sc1C(=O)NCc1ccccc1 [Example 9.25, (R)—N-benzyl-2-(4-benzyl-2-oxoimidazolidin-1-yl)-4-methylthiazole-5-carboxamide] | 212 to 214 |
| Cc1nc(N2CCN(CCC3CC3)C2=O)sc1C(=O)NCc1cccnc1 [Example 9.26, 2-(3-(2-cyclopropylethyl)-2-oxoimidazolidin-1-yl)-4-methyl-N-(pyridin-3-ylmethyl)thiazole-5-carboxamide] | 146 to 147 |
| Cc1nc(N2CCN(CCCc3ccccc3)C2=O)sc1C(=O)NCc1cccnc1 [Example 9.27, 4-methyl-2-(2-oxo-3-(3-phenylpropyl)imidazolidin-1-yl)-N-(pyridin-3-ylmethyl)thiazole-5-carboxamide] | 127 to 128 |
| Cc1nc(N2CCN(Cc3ccc(OC(F)(F)F)cc3)C2=O)sc1C(=O)NC[C@H](O)c1ccccc1 [Example 9.29, (R)—N-(2-hydroxy-2-phenylethyl)-4-methyl-2-(2-oxo-3-(4-(trifluoromethoxy)benzyl)imidazolidin-1-yl)thiazole-5-carboxamide] | 149 to 151 |
| Cc1nc(N2CCN(Cc3ccc(OC(F)(F)F)cc3)C2=O)sc1C(=O)Nc1ccccc1 [Example 9.30, 4-methyl-2-(2-oxo-3-(4-(trifluoromethoxy)benzyl)imidazolidin-1-yl)-N-phenylthiazole-5-carboxamide] | 187 to 188 |
| Cc1nc(N2CCN(Cc3ccc(OC(F)(F)F)cc3)C2=O)sc1C(=O)NCCc1ccccc1 [Example 9.31, 4-methyl-2-(2-oxo-3-(4-(trifluoromethoxy)benzyl)imidazolidin-1-yl)-N-phenethylthiazole-5-carboxamide] | 184 to 185 |
| Cc1cnc(CNC(=O)c2sc(N3CCN(CC4CC4)C3=O)nc2C)cn1 [Example 9.34, 2-(3-(cyclopropylmethyl)-2-oxoimidazolidin-1-yl)-4-methyl-N-((5-methylpyrazin-2-yl)methyl)thiazole-5-carboxamide] | 161 to 163 |
| Cc1nc(N2CCN(CC3CCCCC3)C2=O)sc1C(=O)NCc1cccnc1 [Example 9.35, 2-(3-(cyclohexylmethyl)-2-oxoimidazolidin-1-yl)-4-methyl-N-(pyridin-3-ylmethyl)thiazole-5-carboxamide] | 134 to 136 |
| Cc1nc(N2CCN(CC3CCCCO3)C2=O)sc1C(=O)NCc1cccnc1 (centres unmarked) [Example 9.36, 4-methyl-2-(2-oxo-3-((tetrahydro-2H-pyran-2-yl)methyl)imidazolidin-1-yl)-N-(pyridin-3-ylmethyl)thiazole-5-carboxamide] | 174 to 175 |
| Cc1nc(N2CCN(CC3CCC3)C2=O)sc1C(=O)NCc1cccnc1 [Example 9.37, 2-(3-(cyclobutylmethyl)-2-oxoimidazolidin-1-yl)-4-methyl-N-(pyridin-3-ylmethyl)thiazole-5-carboxamide] | 136 to 137 |
| Cc1nc(N2CCN(CC3CCCC3)C2=O)sc1C(=O)NCc1cccnc1 [Example 9.38, 2-(3-(cyclopentylmethyl)-2-oxoimidazolidin-1-yl)-4-methyl-N-(pyridin-3-ylmethyl)thiazole-5-carboxamide] | 142 to 143 |
| CCCN1CCN(c2nc(C)c(C(=O)NCc3cccnc3)s2)C1=O [Example 9.40, 4-methyl-2-(2-oxo-3-propylimidazolidin-1-yl)-N-(pyridin-3-ylmethyl)thiazole-5-carboxamide] | 109 to 111 |
| CCCCCN1CCN(c2nc(C)c(C(=O)NCc3cccnc3)s2)C1=O [Example 9.42, 4-methyl-2-(2-oxo-3-pentylimidazolidin-1-yl)-N-(pyridin-3-ylmethyl)thiazole-5-carboxamide] | 102 to 103 |
| Cc1nc(N2CCN(Cc3ccc(F)cc3)C2=O)sc1C(=O)NCc1ccc(C(F)F)o1 [Example 9.44, N-((5-(difluoromethyl)furan-2-yl)methyl)-2-(3-(4-fluorobenzyl)-2-oxoimidazolidin-1-yl)-4-methylthiazole-5-carboxamide] | 173 to 174 |
| Cc1nc(N2CCN(Cc3ccc(C(F)F)o3)C2=O)sc1C(=O)NCc1cccnc1 [Example 9.45, 2-(3-((5-(difluoromethyl)furan-2-yl)methyl)-2-oxoimidazolidin-1-yl)-4-methyl-N-(pyridin-3-ylmethyl)thiazole-5-carboxamide] | 142 to 143 |
| CCOC(=O)c1sc(N2CCN(Cc3ccc(Cl)cc3)C2=O)nc1C [Example 10.3, ethyl 2-(3-(4-chlorobenzyl)-2-oxoimidazolidin-1-yl)-4-methylthiazole-5-carboxylate] | 117 to 119 |
| CCOC(=O)c1sc(N2C[C@@H](Cc3ccccc3)NC2=O)nc1C [Example 11, (R)-ethyl 2-(4-benzyl-2-oxoimidazolidin-1-yl)-4-methylthiazole-5-carboxylate] | 102 to 103 |
| Cc1nc(N2CCN(CC(=O)NCc3ccc(F)cc3)C2=O)sc1C(=O)NCc1ccccc1 [Example 15.5, N-benzyl-2-(3-(2-(4-fluorobenzylamino)-2-oxoethyl)-2-oxoimidazolidin-1-yl)-4-methylthiazole-5-carboxamide] | 232 to 234 |
| Cc1nc(N2C(=O)N(Cc3ccc(F)cc3)CC2O)sc1C(=O)NCc1ccccc1 (centres unmarked) [Example 16, N-benzyl-2-(3-(4-fluorobenzyl)-5-hydroxy-2-oxoimidazolidin-1-yl)-4-methylthiazole-5-carboxamide] | 133 to 134 |
| Cc1nc(N2C(=O)N(CCc3ccc(F)cc3)CC2O)sc1C(=O)NCc1cccnc1 (centres unmarked) [Example 16.1, 2-(3-(4-fluorophenethyl)-5-hydroxy-2-oxoimidazolidin-1-yl)-4-methyl-N-(pyridin-3-ylmethyl)thiazole-5-carboxamide] | 182 to 184 |

Results, then the molecule that gave them:

| melting point [°C] | Compound |
| --- | --- |
| 165 to 166 | Cc1nc(N2CCN(Cc3ccc(OC(F)(F)F)cc3)C2=O)sc1C(=O)NCc1cccnc1 [Example 9.22, 4-methyl-2-(2-oxo-3-(4-(trifluoromethoxy)benzyl)imidazolidin-1-yl)-N-(pyridin-3-ylmethyl)thiazole-5-carboxamide] |
| 197 to 198 | Cc1nc(N2CCN(Cc3ccc(OC(F)(F)F)cc3)C2=O)sc1C(=O)NCc1ccccc1 [Example 9.23, N-benzyl-4-methyl-2-(2-oxo-3-(4-(trifluoromethoxy)benzyl)imidazolidin-1-yl)thiazole-5-carboxamide] |
| 166 to 167 | Cc1nc(N2CCN(Cc3ccc(OC(F)F)cc3)C2=O)sc1C(=O)NCc1cccnc1 [Example 9.24, 2-(3-(4-(difluoromethoxy)benzyl)-2-oxoimidazolidin-1-yl)-4-methyl-N-(pyridin-3-ylmethyl)thiazole-5-carboxamide] |
| 178 to 179 | Cc1nc(N2CCN(Cc3ccc(Cl)cc3)C2=O)sc1C(=O)NCc1cccnc1 [Example 9.28, 2-(3-(4-chlorobenzyl)-2-oxoimidazolidin-1-yl)-4-methyl-N-(pyridin-3-ylmethyl)thiazole-5-carboxamide] |
| 172 to 173 | Cc1nc(N2CCN(Cc3ccc(OC(F)(F)F)cc3)C2=O)sc1C(=O)NCCc1cccnc1 [Example 9.32, 4-methyl-2-(2-oxo-3-(4-(trifluoromethoxy)benzyl)imidazolidin-1-yl)-N-(2-(pyridin-3-yl)ethyl)thiazole-5-carboxamide] |
| 172 to 173 | Cc1cnc(CNC(=O)c2sc(N3CCN(Cc4ccc(C(F)(F)F)cc4)C3=O)nc2C)cn1 [Example 9.33, 4-methyl-N-((5-methylpyrazin-2-yl)methyl)-2-(2-oxo-3-(4-(trifluoromethyl)benzyl)imidazolidin-1-yl)thiazole-5-carboxamide] |
| 175 to 176 | Cc1nc(N2CCN(Cc3cccc(C(F)(F)F)c3)C2=O)sc1C(=O)NCc1cccnc1 [Example 9.43, 4-methyl-2-(2-oxo-3-(3-(trifluoromethyl)benzyl)imidazolidin-1-yl)-N-(pyridin-3-ylmethyl)thiazole-5-carboxamide] |
| 102 to 104 | Cc1cc(N2CCN(Cc3ccc(C(F)(F)F)cc3)C2=O)sc1C(=O)NCc1cccnc1 [Example 15, 3-methyl-5-(2-oxo-3-(4-(trifluoromethyl)benzyl)imidazolidin-1-yl)-N-(pyridin-3-ylmethyl)thiophene-2-carboxamide] |
| 130 to 131 | Cc1cc(N2CCN(Cc3ccccc3)C2=O)sc1C(=O)NCc1cccnc1 [Example 15.1, 5-(3-benzyl-2-oxoimidazolidin-1-yl)-3-methyl-N-(pyridin-3-ylmethyl)thiophene-2-carboxamide] |
| 119 to 120 | Cc1cc(N2CCN(Cc3ccc(F)cc3)C2=O)sc1C(=O)NCc1cccnc1 [Example 15.2, 5-(3-(4-fluorobenzyl)-2-oxoimidazolidin-1-yl)-3-methyl-N-(pyridin-3-ylmethyl)thiophene-2-carboxamide] |
| 157 to 159 | Cc1cc(N2CCN(CC3CC3)C2=O)sc1C(=O)NCc1cccnc1 [Example 15.3, 5-(3-(cyclopropylmethyl)-2-oxoimidazolidin-1-yl)-3-methyl-N-(pyridin-3-ylmethyl)thiophene-2-carboxamide] |
| 95 to 97 | Cc1cc(N2CCN(CCc3ccccc3)C2=O)sc1C(=O)NCc1cccnc1 [Example 15.4, 3-methyl-5-(2-oxo-3-phenethylimidazolidin-1-yl)-N-(pyridin-3-ylmethyl)thiophene-2-carboxamide] |

Reference: US8293768B2, “Organic compounds” (Novartis AG, priority 2006, dated 2012)
